Measurements as given in US20100048723A1, “Compositions and Methods for Preventing or Treating Obesity In Animals” (priority 2007, published 2010).
Marks after values point to notes of the source that are not given here.

Test system: canine genes
Test: Canine cell culture genomic assay: modification of gene expression in vitro (Affymetrix canine gene chips)
Format: cell-based
Design: key: those genes that are modified by capsaicin are identified by an asterix (*)
Conditions: canine cell lines CCL34, CRL1430, CCL183, CTAC; up or down regulation
Experimental: We have compiled a database of substances known to modify the expression of various canine genes in canine cells in vitro according to the following methods provided below and previously described (see, e.g., U.S. 2006-0200320 Al).
Test substances are assayed in two concentrations using the following canine cell lines: CCL34 (kidney), CRL1430 (thymus), CCL183 (bone) (all obtained from the American Tissue Culture Collection) and CTAC (thyroid) (see, Measurement of NK Activity in Effector Cells Purified from Canine Peripheral Lymphocytes, Veterinary Immunology and Immunopathology, 35 (1993) 239-25 1). Briefly, cells are cultured in OptiCell chambers according to conventional methods and the next day treated with test substance. The solvent used at the higher of the two concentrations is used as a control. The following day the cells are harvested for genomic assay.
RNA is isolated from the canine cultures using commercially available methods, e.g., an RNAeasy Mini Kit (Qiagen, Valencia, Calif.) according to the manufacturers instructions and conventional methods. The quality of the isolated RNA is analyzed using a RNA 6000 Nano Assay and an Agilent 2100 Bioanalyzer. The procedure is performed according to the manufacturer's instructions provided in the Reagent Kit Guide (see Edition November 2003, by Agilent Technologies) with the following modifications: during gel preparation, rather than separating the filtered gel into aliquots of 65 uL each, the stock filtered gel is kept in the original microcentrifuge tube and the 65 uL is aliquoted as needed; while loading the RNA 6000 Nano Marker, 1 uL of RNase-free water (instead of RNA 6000 Nano Marker) is added to each sample well that will not contain sample. When loading the RNA 6000 Ladder and samples, heat denature the samples and RNA 6000 Ladder for an additional 30 seconds (total of 2.5 minutes) at 71° C.; with regard to “Starting the Chip Run”, choose the “Eukaryote Total RNA Nano” option from the assay menu.
Gene expression is measured for the treatment cell lines and controls using Affymetrix canine gene chips Canine-1 and Canine-2 according to the manufacturer's instructions. Gene expression data is determined to be either “up” or “down”-regulated for any given treatment. The decision on whether a gene is “up” or “down” is based on the fold change, which is calculated as treatment intensity/control intensity for each individual probe. […] Also, a probe is considered significant for further scrutiny if it is called as “present” in only one of the conditions being compared (treatment or control) and is “absent” or “marginal” in the other and the fold change is significant according to the software used. Probes that appear to be regulated in opposite directions in the two treatments are excluded from further analysis. The raw data is analyzed using GeneSpring version 7.0 (GS) software (Agilent Corporation) and validated using the R-Bioconductor (RB) freeware. Both software packages are used to compute probe intensities from the CEL files generated by the Affymetrix Instrument. The Present/Absent/Marginal calls per probe and P-values are computed using the R-Bioconductor and GeneSpring software separately.
Two schemes are used for data analysis. First: “across cell lines” and “within individual cell lines.” In the first scheme, genes are selected for scoring provided they are found to be significant and common across all cell-lines. The “across cell lines” yields the highest confidence data with minimum noise and may provide the best possible clues as to which genes are affected by individual ingredients. In the second scheme, only those genes that show a significant fold change in the two treatments according to both software packages within an individual cell lines are scored.
Table 1A provided hereinabove is a list of canine genes the expression of which is modified in vitro in the presence of various compounds. […]

COc1cc(CNC(=O)CCCCC=CC(C)C)ccc1O [capsaicin, 8-methyl-N-vanillyl-6-nonenamide]
expression of Complement component 4 modified in canine cells in vitro: Complement component 4 *
expression of Fragilis/homolog to rat interferon-inducible protein modified in canine cells in vitro: protein*
expression of Homolog to Homo sapiens interferon-induced 35-kDa protein modified in canine cells in vitro: kDa protein*
expression of L-Plastin/lymphocyte cytosolic protein 1 modified in canine cells in vitro: L-Plastin/lymphocyte cytosolic protein 1*
expression of α Cytochrome b558/cytochrome b-245 modified in canine cells in vitro: ^α Cytochrome b558/cytochrome b-245 *
expression of α Tubulin, 1 modified in canine cells in vitro: ^α Tubulin, 1 *
